What was measured:
[1] = tested on: obese mouse model (C57BL/6J mice fed a high fat diet); test: High fat diet obese mouse model, daily oral pentadecanoic acid; type: in vivo
Method: This study examined the impact of daily oral administration of synthetic pentadecanoic acid (C15:0) on total and LDL cholesterol in an obese mouse model. Twenty C57BL/6J mice were fed a high fat diet (HFD) (D12492, 60% kcals fat) for 8 weeks. Study mice were then divided into the following two groups of ten: vehicle controls and pentadecanoic acid—treated (5 mg/kg body weight). The test article was a synthetic powder form stable at room temperature and purchased from Sigma-Aldrich (Products W433400 (≥99% C15:0). The test article was provided daily via gastric gavage for 12 weeks (84 days) while continuing ad libitum access to the HFD. Total cholesterol and low-density lipoprotein (LDL) cholesterol were measured at Day 0 and Day 84. Data from the treated group were compared to the control group using Wilcoxon rank sum analyses. Significance was defined as a P value less than or equal to 0.05.

[2] = tested on: SAg system: venular endothelial cells, peripheral blood mononuclear cells (TCR ligands); test: BioMAP Diversity PLUS, SAg system; type: cell-based, human
Excerpt: (§1) The Diversity PLUS panel allows test agent characterization in an unbiased way across a broad set of systems modeling various human disease states. These systems are designed to model complex human tissue and disease biology of the vasculature, skin, lung, and inflammatory tissues. Quantitative measurements of 148 biomarker activities across this broad panel, along with comparative analysis of biological activities from known bioactive agents, were used to predict and compare the efficacy and function of each selected compound at four concentrations (740 nm and 2.2, 6.7 and 20 μM).
(§2) BioMAP systems are constructed with one or more primary cell types from healthy human donors, with stimuli (such as cytokines or growth factors) added to capture relevant signaling networks that naturally occur in human tissue or pathological conditions. Vascular biology is modeled in both a Th1 (3C system) and a Th2 (4H system) inflammatory environment, as well as in a Th1 inflammatory state specific to arterial smooth muscle cells (CASM3C system). Additional systems recapitulate aspects of the systemic immune response including monocyte-driven Th1 inflammation (LPS system) or T cell stimulation (SAg system), chronic Th1 inflammation driven by macrophage activation (lMphg system) and the T cell-dependent activation of B cells that occurs in germinal centers (BT system). The BE3C system (Th1) and the BF4T system (Th2) represent airway inflammation of the lung, while the MyoF system models myofibroblast-lung tissue remodeling. Lastly, skin biology is addressed in the KF3CT system modeling Th1 cutaneous inflammation and the HDF3CGF system modeling wound healing.
(§3) Each test agent generates a signature BioMAP profile that is created from the changes in protein biomarker readouts within individual system environments. Biomarker readouts (7-17 per system) are selected for therapeutic and biological relevance, are predictive for disease outcomes or specific drug effects and are validated using agents with known mechanism of action (MoA). Each readout is measured quantitatively by immune-based methods that detect protein (e.g., ELISA) or functional assays that measure proliferation and viability. BioMAP readouts are diverse and include cell surface receptors, cytokines, chemokines, matrix molecules and enzymes. In total, the Diversity PLUS panel contains 148 biomarker readouts that capture biological changes that occur within the physiological context of the particular BioMAP system. Specific BioMAP activities have been correlated to in vivo biology, and multiparameter BioMAP profiles have been used to distinguish compounds based on MoA and target selectivity across diverse physiological systems.
(§4) Activated BioMAP systems were incubated with each compound for 24 to 72 hours. Protein-based biomarkers from activated cell systems were measured and compared with non-treated control systems.

[3] = tested on: CD19+ B cells and peripheral blood mononuclear cells stimulated with α-IgM and TCR ligands; test: First cell-based system: T cell-dependent activation of B cells (allergy); parameters: species or system human
Method: (§5) This study examined the impact of synthetic pentadecanoic acid (C15:0) at four concentrations (740 nm and 2.2, 6.7, and 20 μM) on three primary human cell-based activity systems that were exposed to agents that mimicked allergic, thrombotic, and fibrotic disease states. In general, protein-based biomarkers in these systems were measured and compared with controls. Pentadecanoic acid was considered ‘active’ when 2 or more consecutive concentrations changed a given biomarker in the same direction relative to vehicle controls, were outside of the significance envelope of internal controls, and had at least one concentration with an effect size greater than 20% (log 10 ratio >0.1).
The first cell-based system recapitulated T cell-dependent activation of B cells that occurs in germinal centers to mimic allergy disease states. CD19^+ B cells and peripheral blood mononuclear cells were stimulated with α-IgM and TCR ligands and incubated with pentadecanoic acid for 168 hours. In addition to controls that were not treated with pentadecanoic acid, a negative, non-stimulated system was also included. Secreted IgG was measured and compared with controls.

[4] = tested on: Primary endothelial cells stimulated with IL-1β, TNF-α, and IFNγ; test: Second cell-based system: Th1 inflammatory and prothrombotic environment; parameters: species or system human
Method: as §5
The second cell-based system recapitulated a Th1 inflammatory and prothrombotic environment. Primary endothelial cells were stimulated with IL-1β, TNF-α, and IFNγ and incubated with pentadecanoic acid for 24 hours. In addition to controls that were not treated with pentadecanoic acid, a negative, non-stimulated system was also included. Urokinase plasminogen activator receptor (uPAR) activation in this system was measured and compared with controls.

[5] = tested on: BT system: peripheral blood mononuclear cells, B cells (α-IgM, TCR ligands); test: BioMAP Diversity PLUS, BT system; type: cell-based, human
Excerpt: as §1, §2, §3, §4

[6] = all four concentrations (740 nm and 2.2, 6.7, and 20 μM)

## CCCCCCCCCCCCCCC(=O)O [Pentadecanoic acid, pentadecanoic acid]
[1]; 5 mg/kg daily gavage, 12 weeks, HFD mice
  Tolerability of test article: tolerated the test article throughout the study
[1]; Index at Day 84, 5 mg/kg dose daily via gastric gavage for 12 weeks, HFD mice, P 0.032 vs HFD control
  Total Cholesterol: 183 + 25 mg/dl
[1]; Index at Day 84, 5 mg/kg dose daily via gastric gavage for 12 weeks, HFD mice, P 0.036 vs HFD control
  LDL Cholesterol: 6.3 ± 3.6 mg/dL
[1]; oral daily for 12 weeks, obese mice on high fat diet
  Percent body weight gain compared to control mice on high fat diet alone: lower percent body weight gain
[1]; treated group, 5 mg/kg daily gavage, 12 weeks
  Early mortalities: no early mortalities
[2]; 6.7 μM
  Significant log10 reduction vs nontreated controls: Monocyte chemoattractant protein 1 (MCP-1): −0.18 log10
[2]; 20.0 μM
  Significant log10 reduction vs nontreated controls: Monocyte chemoattractant protein 1 (MCP-1): −0.15 log10
[3]; 168 hours incubation, 6.7 μM and 20 μM bioactive, vs controls
  Secreted IgG (FIG. 2): dose-dependent decreases
[3]; [6]
  Cytotoxicity: non-cytotoxic
[4]; 24 hours incubation, 6.7 μM and 20 μM bioactive, vs controls
  uPAR (FIG. 3): increases
[4]; [6]
  Cytotoxicity: non-cytotoxic
[5]; 2.2 μM
  Significant log10 reduction vs nontreated controls: Secreted interleukin 17A (IL-17A): −0.25 log10
  Significant log10 reduction vs nontreated controls: Secreted interleukin 17F (IL-17F): −0.16 log10
[5]; 6.7 μM
  Significant log10 reduction vs nontreated controls: Secreted immunoglobulin G (IgG): −0.17 log10
[5]; 20.0 μM
  Significant log10 reduction vs nontreated controls: Secreted immunoglobulin G (IgG): −0.55 log10
  Significant log10 reduction vs nontreated controls: Secreted interleukin 6 (IL-6): −0.29 log10
  Significant log10 reduction vs nontreated controls: Secreted interleukin 17A (IL-17A): −0.29 log10
  Significant log10 reduction vs nontreated controls: Secreted interleukin 17F (IL-17F): −0.18 log10

From patent US20240016773A1, “COMPOSITIONS AND METHODS FOR DIAGNOSIS AND TREATMENT OF CONDITIONS RELATED TO AGING” (EPITRACKER, INC., priority 2018, published 2024)
